Assay results published in patent US20090017139A1, “Iodine therapy dosing for treating medical conditions” (priority 2007, published 2009).
Like-named read-outs stand apart in the source and are kept apart here.

What was measured:
[1] = system: female patients with fibrocystic breast condition; test: Example 2: 36 month study, treatment emergent thyroid status in iodine adapted patients; type: in vivo, human; conditions: for Hyperthyroidism Overt ↓TSH ↑T4 / Hyperthyroidism Subclinical ↓TSH / Hypothyroidism Overt ↑TSH (5-10) ↓T4 / Hypothyroidism Overt ↑TSH (10-20) ↓T4 / Hypothyroidism Overt ↑TSH (>20) ↓T4 / Hypothyroidism Subclinical ↑TSH (5-10) / Hypothyroidism Subclinical ↑TSH (10-20) / Hypothyroidism Subclinical ↑TSH (>20): iodine adapted, patients (percent of dose group)
Method: Female patients already receiving aqueous I2 therapy for fibrocystic breast condition were enrolled in study that ran for 36 months. Patients in this study were dosed at I2 levels that ranged from 3 to 12 mg/d. A total of 923 patients were enrolled; over 700 patients remained on drug for at least 2 years. The ages of participants ranged from 17 to 78 years with an average age of 47.4 years.
Variations in treatment emergent thyroid status were evaluated based on TSH and T4 values (see Table 1). […] Patients were categorized sub-clinical hypothyroid if TSH was elevated and T4 values were normal; patients with depressed T4 values were considered overtly hypothyroid.

[2] = cited from earlier work
[3] = system: patient with follicular cyst of the ovary; test: Example 4: I2 therapy of a patient with ovarian follicular cysts; type: in vivo, human
Method: The post surgical diagnosis was ruptured follicular cyst of the right ovary. After the surgical procedure the patient continued to experience lower right quadrant abdominal pain. […] The patient was started on I2 therapy at a dose of 6.0 mg/d. The patient was seen again 3 months later (December 3 to March 16). After three months of I2 therapy the patient was free of pain which their […] regarded as unique.
The patient subsequently stopped I2 therapy and approximately 3 years later symptoms of abdominal and breast pain were present. The patient was started again on daily I2 therapy at a dose of 6.0 mg/d. An ultrasound was performed and small follicular cysts in each ovary was noted. […] The patient was continued on daily iodine therapy at a concentration of 3.0 mg/d.

[4] = in drinking water, 100 days; cited from earlier work
women with mastalgia = conditions: cited from earlier work; for patients reporting headaches: 6 month study
[5] = system: euthyroid mastalgia patients; test: Example 1: multi-center, randomized, double-blind, placebo-controlled 6 month mastalgia study; type: in vivo, human; conditions: for change in the Lewin Overall pain scale: 6.0 mg/d
Method: A multi-center, randomized, double-blind, placebo-controlled study dosed patients for 6 months with 0.0, 1.5, 3.0 and 6.0 mg I2 daily. Healthy euthyroid mastalgia patients between the ages of 18 and 50 who were unresponsive to conservative treatments like OTC analgesics were eligible for the study. Subjects needed to identify a history of at least six months of moderate or severe breast pain and document at least 6 days per cycle of moderate or severe pain in a daily dairy (FIG. 1 below).

breast cancer cell lines = conditions: cited from earlier work

For `II` [I2, molecular iodine], the “proportion of patients with sub-clinical hypothyroidism” value ([1]; 3 mg dose group) was 13%, the “rate of all sub-clinical conditions” value ([1]; 3 mg dose group) was 18.3% and the “proportion of patients with sub-clinical hypothyroidism” value ([1]; 6 mg dose group) was 16.5%. For the same compound, the “rate of all sub-clinical conditions” value ([1]; 6 mg dose group) was 22.2%, the “Hyperthyroidism Overt ↓TSH ↑T4” value ([1]; I2 3.0 mg/d) was 1 (0.3) and the “Hyperthyroidism Subclinical ↓TSH” value ([1]; I2 3.0 mg/d) was 16 (5.3). For the same compound, the “Hypothyroidism Overt ↑TSH (5-10) ↓T4” value ([1]; I2 3.0 mg/d) was 2 (0.4), the “Hypothyroidism Overt ↑TSH (10-20) ↓T4” value ([1]; I2 3.0 mg/d) was 0 (0.0) and the “Hypothyroidism Overt ↑TSH (>20) ↓T4” value ([1]; I2 3.0 mg/d) was 0 (0.0). For the same compound, the “Hypothyroidism Subclinical ↑TSH (5-10)” value ([1]; I2 3.0 mg/d) was 27 (9.0), the “Hypothyroidism Subclinical ↑TSH (10-20)” value ([1]; I2 3.0 mg/d) was 10 (3.3) and the “Hypothyroidism Subclinical ↑TSH (>20)” value ([1]; I2 3.0 mg/d) was 2 (0.7). The “Hyperthyroidism Overt ↓TSH ↑T4” value ([1]; I2 6.0 mg/d) was 1 (0.2), the “Hyperthyroidism Subclinical ↓TSH” value ([1]; I2 6.0 mg/d) was 28 (5.7) and the “Hypothyroidism Overt ↑TSH (5-10) ↓T4” value ([1]; I2 6.0 mg/d) was 0 (0.0). The “Hypothyroidism Overt ↑TSH (10-20) ↓T4” value ([1]; I2 6.0 mg/d) was 2 (0.4), the “Hypothyroidism Overt ↑TSH (>20) ↓T4” value ([1]; I2 6.0 mg/d) was 2 (0.4) and the “Hypothyroidism Subclinical ↑TSH (5-10)” value ([1]; I2 6.0 mg/d) was 70 (14). For the same compound, the “Hypothyroidism Subclinical ↑TSH (10-20)” value ([1]; I2 6.0 mg/d) was 10 (2.0), the “Hypothyroidism Subclinical ↑TSH (>20)” value ([1]; I2 6.0 mg/d) was 1 (0.2) and the “Hyperthyroidism Overt ↓TSH ↑T4” value ([1]; I2 9.0 mg/d) was 0 (0.0). The “Hyperthyroidism Subclinical ↓TSH” value ([1]; I2 9.0 mg/d) was 0 (0.0), the “Hypothyroidism Overt ↑TSH (5-10) ↓T4” value ([1]; I2 9.0 mg/d) was 0 (0.0) and the “Hypothyroidism Overt ↑TSH (10-20) ↓T4” value ([1]; I2 9.0 mg/d) was 0 (0.0). The “Hypothyroidism Overt ↑TSH (>20) ↓T4” value ([1]; I2 9.0 mg/d) was 0 (0.0), the “Hypothyroidism Subclinical ↑TSH (5-10)” value ([1]; I2 9.0 mg/d) was 0 (0.0) and the “Hypothyroidism Subclinical ↑TSH (10-20)” value ([1]; I2 9.0 mg/d) was 1 (6.3). For the same compound, the “Hypothyroidism Subclinical ↑TSH (>20)” value ([1]; I2 9.0 mg/d) was 1 (6.3), the “Hyperthyroidism Overt ↓TSH ↑T4” value ([1]; I2 12.0 mg/d) was 0 (0.0) and the “Hyperthyroidism Subclinical ↓TSH” value ([1]; I2 12.0 mg/d) was 1 (25). The “Hypothyroidism Overt ↑TSH (5-10) ↓T4” value ([1]; I2 12.0 mg/d) was 0 (0.0), the “Hypothyroidism Overt ↑TSH (10-20) ↓T4” value ([1]; I2 12.0 mg/d) was 0 (0.0) and the “Hypothyroidism Overt ↑TSH (>20) ↓T4” value ([1]; I2 12.0 mg/d) was 0 (0.0). The “Hypothyroidism Subclinical ↑TSH (5-10)” value ([1]; I2 12.0 mg/d) was 0 (0.0), the “Hypothyroidism Subclinical ↑TSH (10-20)” value ([1]; I2 12.0 mg/d) was 0 (0.0) and the “Hypothyroidism Subclinical ↑TSH (>20)” value ([1]; I2 12.0 mg/d) was 0 (0.0). The “Overt hypothyroidism, patients (second statement, compared to prevalence of overt hyperthyroidism)” value ([1]; all patients, 3 to 12 mg/d) was 0.5%, the “overall incidence of treatment emergent sub-clinical hyper- or hypothyroidism” value ([1]; all patients, 3 to 12 mg/d) was 20.6% and the “Overt hypothyroidism, patients” value ([1]; all patients, 3 to 12 mg/d, first statement) was 0.2%. For the same compound, the “iodine uptake in thyroid compared to iodide” value ([2]; oral administration) was “half as much”, the “reduction of thyroidal uptake by perchlorate” value ([2]; perchlorate 6 mg i.p., 2 hr predosing) was 40% and the “symptoms on continued therapy” value ([3]; 3.0 mg/d, seen 9 and 18 months later) was “remained asymptomatic”. For the same compound, the abdominal pain ([3]; 6.0 mg/d, after three months of therapy) was “free of pain”, the “ultrasound of the ovaries” value ([3]; 6.0 mg/d, approximately 4 months later) was “ovaries appeared normal” and the symptoms of pain ([3]; 6.0 mg/d, within a month of reinitiating therapy) was “no longer present”. For the same compound, the “suppressing thyroid uptake of a challenge dose of 125iodide” value [4] was “less effective than iodide”, the patients reporting headaches (women with mastalgia; 1.5 mg/day group) was 6.3% and the patients reporting headaches (women with mastalgia; 3.0 mg/day group) was 26%. The patients reporting headaches (women with mastalgia; 6.0 mg/day group) was 12%, the “change in five thyroid function tests (T3, T4, T uptake, TSH, FT3)” value (women with mastalgia; any treatment group) was “No statistically significant change” and the “change in the Lewin Overall pain scale” value ([5]; month 3) was 45.4%. For the same compound, the “change in the Lewin Overall pain scale” value ([5]; month 6) was 45.0%, the “magnitude of pain reduction versus dose” value ([5]; 1.5, 3.0, 6.0 mg daily, month 3 and month 6 (p<0.01)) was “increased with dose” and the “difference among dosing groups in adverse events or thyroid related clinical chemistry tests” value ([5]; first 3 months of treatment) was “did not find any difference”. The “effect on estrogen receptor concentration” value (breast cancer cell lines) was “reducing the concentration of estrogen receptor”.
